Activity calls are given as the source filed them. The calls are words filed in the database; no cut-off is given here.
Legend:
[1] = tested on: Mus musculus; test: In vivo inhibition of slc26a3 in loperamide-induced constipation model of female CD-1 mouse at 5 mg/kg, po assessed as reduction in stool water content; type: functional, organism-based
[2] = target: T1, Pendrin (Mus musculus) (UniProt Q9R155); test: Inhibition of mouse Slc26a4-mediated Cl-/ I- exchange at 10 uM measured by cell-based fluorescence assay
T1 sequence (whole entry): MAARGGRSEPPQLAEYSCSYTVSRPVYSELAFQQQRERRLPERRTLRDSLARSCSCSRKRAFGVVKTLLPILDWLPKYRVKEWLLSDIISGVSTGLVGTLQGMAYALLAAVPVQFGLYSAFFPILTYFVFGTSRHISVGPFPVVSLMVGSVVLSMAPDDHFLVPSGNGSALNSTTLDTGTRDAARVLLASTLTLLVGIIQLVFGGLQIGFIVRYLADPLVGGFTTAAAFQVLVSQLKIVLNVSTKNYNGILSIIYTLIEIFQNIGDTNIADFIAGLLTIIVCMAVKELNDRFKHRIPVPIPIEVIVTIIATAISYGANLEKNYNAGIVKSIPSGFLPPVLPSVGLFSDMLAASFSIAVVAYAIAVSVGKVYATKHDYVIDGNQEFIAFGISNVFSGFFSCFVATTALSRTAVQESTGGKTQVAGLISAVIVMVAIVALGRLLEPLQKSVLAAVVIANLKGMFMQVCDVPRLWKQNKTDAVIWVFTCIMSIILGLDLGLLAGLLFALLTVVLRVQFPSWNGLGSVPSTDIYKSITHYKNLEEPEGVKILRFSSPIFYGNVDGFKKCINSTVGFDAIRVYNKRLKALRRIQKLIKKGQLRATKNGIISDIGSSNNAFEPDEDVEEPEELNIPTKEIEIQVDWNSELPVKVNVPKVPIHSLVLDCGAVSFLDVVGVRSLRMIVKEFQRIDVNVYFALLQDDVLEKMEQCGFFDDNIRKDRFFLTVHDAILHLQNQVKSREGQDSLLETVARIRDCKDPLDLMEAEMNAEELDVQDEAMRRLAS

[3] = tested on: Mus musculus; test: In vivo inhibition of slc26a3 in loperamide-induced constipation model of cystic fibrosis mouse at 5 mg/kg, po assessed as reduction in pellet number; type: functional, organism-based
[4] = tested on: HBE; test: Inhibition of CaCC in human HBE cells at 10 uM pretreated with ATP assessed as effect on short-circuit current responses; type: cell-based
[5] = tested on: FRT; test: Inhibition of Slc26a3-mediated Cl-/ I- exchange in rat FRT cells assessed as half-life measured by fluorescence assay; type: cell-based
[6] = tested on: HBE; test: Inhibition of CFTR in human HBE cells at 10 uM pretreated with forskolin assessed as effect on short-circuit current responses; type: cell-based
[7] = species on record: Mus musculus; test: Inhibition of mouse CFTR at 10 uM measured by cell-based fluorescence assay
[8] = tested on: Colon; test: Inhibition of fluid absorption in distal colonic loop isolated from female CD-1 mouse at 10 uM assessed as effect on reduction in loop weight/length ratio; type: functional, tissue-based
[9] = target: T2, Chloride anion exchanger (Mus musculus) (UniProt Q9WVC8); test: Inhibition of mouse Slc26a3 transfected in rat FRT cells at 10 uM preincubated with forskolin, 8-Br-cGMP and PMA and measured by fluorescence assay relative to control; type: cell-based
T2 sequence (whole entry): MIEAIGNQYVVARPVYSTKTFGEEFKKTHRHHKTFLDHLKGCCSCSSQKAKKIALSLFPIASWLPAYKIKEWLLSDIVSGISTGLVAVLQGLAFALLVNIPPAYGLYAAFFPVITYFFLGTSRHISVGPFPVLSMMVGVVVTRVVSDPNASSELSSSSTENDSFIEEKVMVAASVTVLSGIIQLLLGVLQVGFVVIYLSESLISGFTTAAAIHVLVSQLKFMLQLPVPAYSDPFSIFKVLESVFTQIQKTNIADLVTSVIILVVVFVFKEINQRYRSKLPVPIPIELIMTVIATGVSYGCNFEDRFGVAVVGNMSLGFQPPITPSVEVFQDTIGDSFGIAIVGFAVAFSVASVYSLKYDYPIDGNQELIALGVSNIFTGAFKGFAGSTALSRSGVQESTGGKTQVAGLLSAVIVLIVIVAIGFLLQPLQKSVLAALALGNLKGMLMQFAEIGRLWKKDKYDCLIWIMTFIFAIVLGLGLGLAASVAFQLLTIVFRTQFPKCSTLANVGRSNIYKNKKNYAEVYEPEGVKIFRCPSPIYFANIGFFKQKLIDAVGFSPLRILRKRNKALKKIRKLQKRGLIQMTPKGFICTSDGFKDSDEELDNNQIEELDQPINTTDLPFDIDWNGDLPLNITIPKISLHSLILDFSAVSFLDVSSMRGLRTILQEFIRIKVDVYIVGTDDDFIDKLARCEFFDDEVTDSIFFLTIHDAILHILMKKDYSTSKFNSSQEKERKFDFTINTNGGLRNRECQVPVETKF

Cc1c(CC(=O)O)c(=O)oc2c(C)c(OCc3cccc(Br)c3)ccc12
inhibition [1]: Active | inhibition [2]: inactive | inhibition [3]: Active | inhibition [4]: inactive | T1/2 [5]: 30 s | inhibition [6]: inactive | inhibition [7]: inactive | inhibition [8]: Active | inhibition [9]: > 50%

From ChEMBL document CHEMBL5052835, “Slc26a3 inhibitors and use thereof” (2021)
